“And” between values parts separate entries of the source, which are not always exact repeats. Equal values may be shown once.
Experiments:
[1] = system: SARS-CoV-2 M^pro L50F; conditions: cited from earlier work
[2] = system: SARS-CoV-2 M^pro E166V; conditions: cited from earlier work
[3] = system: SARS-CoV-2 M^pro T304I mutant virus; format: cell-based
[4] = system: SARS-CoV-2 M^pro T304I; conditions: cited from earlier work
[5] = system: SARS-CoV-2 M^pro T21I+S144A+T304I mutant virus; format: cell-based
[6] = system: SARS-CoV-2 M^pro T21I; conditions: cited from earlier work

For `CC(C)(C)[C@H](NC(=O)C(F)(F)F)C(=O)N1C[C@H]2[C@@H]([C@H]1C(=O)N[C@H](C#N)C[C@@H]1CCNC1=O)C2(C)C` [Nirmatrelvir], the “fold resistance to nirmatrelvir” value [1] is listed as 4.2 fold, the “fold resistance to nirmatrelvir in vitro” value [2] is listed as “up to 288 fold” and the “Fold over WA-1” value [3] is listed as 3.4 fold. For the same compound, the “fold resistance to nirmatrelvir” value [4] was 5.5 fold, the “Fold over WA-1” value [5] was > 20 fold and 27.8 fold and the “fold resistance to nirmatrelvir” value [6] was 4.6 fold.

— publication PMC11268423 (Science Advances, 2024)
